# According to patent publication US9265771B2, “Method for treating Lyme disease” (Zoetis Services LLC, priority 2012, dated 2016):
# How the values were obtained:
# B. burgdorferi [1] = assay: Study A: joint culture and microscopic pathology of joints and skin; format: in vivo, beagle dogs
# Description: Comparisons included serology, skin culture results and joint pathology.
# Ten joints from each dog were cultured for spirochetes and examined microscopically for changes. Joints included carpus, elbow, shoulder, stifle and tarsus on both the right and left, front and rear limbs. Skin sections were also examined for Lyme disease related changes (pathology). There were six joints from untreated dogs that cultured positive for spirochetes compared to none from dogs treated with Convenia. Microscopically, all untreated, infected dogs had skin sections with inflammatory and other changes as described for Lyme disease, whereas six of eight (75%) treated dogs had similar findings. With the exception of one treated dog with all joints free of pathology, all other dogs had at least two joints showing Lyme disease changes. Despite the microscopic findings, definitively attributing joint pathology to infection or amelioration of pathology as a result of Convenia therapy was equivocal.
# B. burgdorferi [2] = assay: Study B: SNAP-4Dx ELISA in tick-infected dogs; format: in vivo, beagle dogs; conditions: for SNAP-4Dx Positives, Number of Dogs: N = 8/group
# Text: (§1) Three outer surface proteins (Osp) on B. burgdorferi are important for diagnosis and prevention, and are expressed by the organism in response to its local environment. […] OspF is another surface protein that is generally observed in late-stage disease. The C in […] refers to a 25-amino acid, C6 peptide in the sixth invariable region of an outer membrane lipoprotein (VIsE). Antibody against C6 is highly accurate as a serologic diagnosis of Lyme disease independent of a subject's (e.g., canine) vaccination status. Further, the generation of C6 antibodies implies an active infection with viable spirochetes. Serological methods for detecting B. burgdorfer/Lyme disease were conducted using the IDEXX qualitative SNAP-4Dx ELISA and the Quantitative C6 (Quant C6 or QC6) diagnostic kits, which are enzyme linked immunosorbent assays against the previously described 25-amino-acid C6 peptide. QC6 ELISA data, units/mL, are useful for guidance in initiating and evaluating response to therapy (See Levy S A, O'Connor T P, Hanscom J L, Shields P, et al. Quantitative measurement of a C6 antibody following antibiotic treatment of Borrelia burgdorferi antibody-positive, nonclinical dogs. Clin Vacc Immunol 2008; 15(1):115-119 and Littman M P, Goldstein R E, Labato M A, et al. ACVIM Small Animal Concensus Statement on Lyme Disease in Dogs: Diagnosis, Treatment and Prevention. J Vet Intern Med 2006; 20: 422-434).
# (§2) Thirty-two (18 male and 14 female) beagle dogs were sero-negative for Borrelia burgdorferi, not vaccinated with any Borrelia spp vaccines, and acclimated at the study facility for seven days. The study was conducted under National Research Council guidelines (1996). […] Field-caught Ixodes from the northeast USA were placed on the dogs without containment chambers for 10 days; after ticks fed to repletion, dogs were treated with two applications of an approved topical acaricide with a 30-day interval between applications.
# (§3) Forty days post-challenge, and prior to antibiotic treatments, blood was collected from each dog as were two skin biopsy punch samples near tick attachment sites. Blood was collected approximately monthly post-treatment. Skin biopsies were taken near the tick attachment site on Days 48/49, 118, 146, 180, and 315. Serum antibodies to Borrelia were assayed using the IDEXX SNAP-4Dx and QC6 ELISA. In cooperation with Cornell University, serum samples were analyzed using fluorescent-bead-based multiplex assays detecting antibodies against B. burgdorferi outer surface proteins OspA, OspC, and OspF. Data were expressed as median fluorescent intensities (MFI), and shown to be specific and sensitive to provide interpretative guidelines regarding infection. The skin biopsies were collected for a polymerase chain reaction (PCR; FlaB) assay and cultured for spirochete detection. At the end of the study, blood and skin biopsies were collected and synovial tissue from the joints were harvested at necropsy.
# (§4) On Day 75 and Day 89 Convenia was administered to the eight dogs in T04 (8 mg/kg bodyweight; subcutaneous injection). The other treated groups received their respective regimens daily and orally for 30 days from Days 75 to 104. […] Dogs in T01 served as infected, untreated, controls. Inter-treatment comparisons to evaluate antibiotic efficacy included clinical signs, serology, culture results and pathology.
# B. burgdorferi [3] = assay: Study B: QC6 ELISA in tick-infected dogs; format: in vivo, beagle dogs; conditions: 8 dogs/group
# Text: as §1, §2, §3, §4
# [4] = dog, in vivo, sc, 8 mg/kg
# Description: On Days 83 and 97, Convenia was administered (8 mg/kg bodyweight; subcutaneous injection). Treated dogs, 8 B. burgdorferi-positive and 4 controls, were compared to untreated cohorts (8 B. burgdorferi-positive, and 3 controls).
# [5] = feline; cited from earlier work
# [6] = following subcutaneous injection; cited from earlier work
compound,measurement,setting,value
"CO/N=C(\C(=O)N[C@@H]1C(=O)N2C(C(=O)[O-])=C([C@@H]3CCCO3)CS[C@H]12)c1csc(N)n1.[Na+] [Convenia, (6R,7R)-7-[[(2Z)-(2-amino-4-thiazolyl)(methoxyimino)acetyl]-amino]-8-oxo-3-[(2S)-tetrahydro-2-furanyl]-5-thia-1-azabicyclo[4.2.0]oct-2-ene-2-carboxylic acid, monosodium salt]",Number of treated dogs with all joints free of pathology,"B. burgdorferi [1]; dog, in vivo",one
same,Number of treated dogs with skin sections with inflammatory and other changes as described for Lyme disease,B. burgdorferi [1]; of eight treated infected dogs,six
same,Treated dogs with skin sections with inflammatory and other changes as described for Lyme disease,B. burgdorferi [1]; of eight treated infected dogs,75%
same,Joints that cultured positive for spirochetes,"B. burgdorferi [1]; ten joints per dog, six in untreated dogs",none
same,Grade of inflammatory changes in joints,B. burgdorferi [1]; untreated dogs: moderate to marked,none to mild
same,"SNAP-4Dx Positives, Number of Dogs",B. burgdorferi [2]; Day 48 (pre-treatment; antibiotics from Day 75),6
same,"SNAP-4Dx Positives, Number of Dogs",B. burgdorferi [2]; Day 111,5
same,"SNAP-4Dx Positives, Number of Dogs",B. burgdorferi [2]; Day 145,1
same,"SNAP-4Dx Positives, Number of Dogs",B. burgdorferi [2]; Day 179,2
same,"SNAP-4Dx Positives, Number of Dogs",B. burgdorferi [2]; Day 221,0
same,"SNAP-4Dx Positives, Number of Dogs",B. burgdorferi [2]; Day 251,0
same,"SNAP-4Dx Positives, Number of Dogs",B. burgdorferi [2]; Day 281,0
same,"SNAP-4Dx Positives, Number of Dogs",B. burgdorferi [2]; Day 315,0
same,"SNAP-4Dx Positives, Number of Dogs",B. burgdorferi [2]; Day −15 (pre-infection),0
same,SNAP-4Dx positive dogs,B. burgdorferi [2]; rest of the study after Day 179,none positive
same,"Dogs Sero-converted to B. burgdorferi per QC6 ELISA (≧30 U/mL), (%)",B. burgdorferi [3]; Day 48 (pre-treatment),75.0%
same,"Number of Dogs Sero-converted to B. burgdorferi per QC6 ELISA (≧30 U/mL), No.",B. burgdorferi [3]; Day 48 (pre-treatment),6
same,"Dogs Sero-converted to B. burgdorferi per QC6 ELISA (≧30 U/mL), (%)",B. burgdorferi [3]; Day 111,75.0%
same,"Number of Dogs Sero-converted to B. burgdorferi per QC6 ELISA (≧30 U/mL), No.",B. burgdorferi [3]; Day 111,6
same,"Dogs Sero-converted to B. burgdorferi per QC6 ELISA (≧30 U/mL), (%)",B. burgdorferi [3]; Day 145,0.0%
same,"Number of Dogs Sero-converted to B. burgdorferi per QC6 ELISA (≧30 U/mL), No.",B. burgdorferi [3]; Day 145,0
same,"Dogs Sero-converted to B. burgdorferi per QC6 ELISA (≧30 U/mL), (%)",B. burgdorferi [3]; Day 179,0.0%
same,"Number of Dogs Sero-converted to B. burgdorferi per QC6 ELISA (≧30 U/mL), No.",B. burgdorferi [3]; Day 179,0
same,"Dogs Sero-converted to B. burgdorferi per QC6 ELISA (≧30 U/mL), (%)",B. burgdorferi [3]; Day 221,0.0%
same,"Number of Dogs Sero-converted to B. burgdorferi per QC6 ELISA (≧30 U/mL), No.",B. burgdorferi [3]; Day 221,0
same,"Dogs Sero-converted to B. burgdorferi per QC6 ELISA (≧30 U/mL), (%)",B. burgdorferi [3]; Day 251,0.0%
same,"Number of Dogs Sero-converted to B. burgdorferi per QC6 ELISA (≧30 U/mL), No.",B. burgdorferi [3]; Day 251,0
same,"Dogs Sero-converted to B. burgdorferi per QC6 ELISA (≧30 U/mL), (%)",B. burgdorferi [3]; Day 281,0.0%
same,"Number of Dogs Sero-converted to B. burgdorferi per QC6 ELISA (≧30 U/mL), No.",B. burgdorferi [3]; Day 281,0
same,"Dogs Sero-converted to B. burgdorferi per QC6 ELISA (≧30 U/mL), (%)",B. burgdorferi [3]; Day 314,0.0%
same,"Number of Dogs Sero-converted to B. burgdorferi per QC6 ELISA (≧30 U/mL), No.",B. burgdorferi [3]; Day 314,0
same,Adverse or unexpected events,[4],No adverse or unexpected events
same,Elimination half-life,[5],~166 h
same,Absorption,[6],rapidly and completely absorbed
